According to ChEMBL document CHEMBL4814045, “Discovery of novel Staphylococcus aureus penicillin binding protein 2a inhibitors by multistep virtual screening and biological evaluation” (Bioorg Med Chem Lett, 2021):
Values after ≈ are worked out from the molar mass of the structure shown.

Tests used:
Staphylococcus aureus [1] = assay: Antibacterial activity against methicillin-resistant Staphylococcus aureus ATCC 33591; format: functional
MecA = target: T1, MecA (Staphylococcus aureus, UniProt Q7DHH4); assay: Binding affinity to Staphylococcus aureus PBP2a assessed as equilibrium dissociation constant by SPR assay
T1 sequence (Q7DHH4 whole entry): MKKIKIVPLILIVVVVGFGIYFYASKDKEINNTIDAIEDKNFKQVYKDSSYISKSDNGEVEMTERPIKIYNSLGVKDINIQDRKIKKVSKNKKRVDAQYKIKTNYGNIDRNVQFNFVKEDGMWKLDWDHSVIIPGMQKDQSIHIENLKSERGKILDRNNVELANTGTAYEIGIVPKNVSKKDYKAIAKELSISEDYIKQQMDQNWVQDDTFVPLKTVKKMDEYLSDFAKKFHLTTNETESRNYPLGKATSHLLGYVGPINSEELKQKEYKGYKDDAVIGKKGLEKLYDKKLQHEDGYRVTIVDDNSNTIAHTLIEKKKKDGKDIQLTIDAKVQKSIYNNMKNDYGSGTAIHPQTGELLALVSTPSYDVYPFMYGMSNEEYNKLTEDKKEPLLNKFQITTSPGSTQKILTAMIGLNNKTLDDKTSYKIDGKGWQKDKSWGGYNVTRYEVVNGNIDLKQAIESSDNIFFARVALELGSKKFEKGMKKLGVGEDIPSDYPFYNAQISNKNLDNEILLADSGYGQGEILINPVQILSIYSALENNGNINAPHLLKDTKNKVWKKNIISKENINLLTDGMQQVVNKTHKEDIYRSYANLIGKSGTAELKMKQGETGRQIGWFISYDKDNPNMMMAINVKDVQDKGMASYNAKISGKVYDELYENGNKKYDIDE

L02 = assay: Cytotoxicity against human LO2 cells; format: cell-based
[2] = target: T2, MecA (Staphylococcus aureus) (UniProt Q7DHH4); assay: Binding affinity to Staphylococcus aureus PBP2a assessed as association constant by SPR assay
T2 sequence (whole entry): T1 sequence (Q7DHH4 whole entry)

Staphylococcus aureus [3] = assay: Antibacterial activity against Staphylococcus aureus […]; format: functional
Staphylococcus aureus [4] = assay: Bactericidal activity against methicillin-resistant Staphylococcus aureus 06 clinical isolate by broth dilution assay; format: functional
Staphylococcus aureus [5] = assay: Antibacterial activity against methicillin-resistant Staphylococcus aureus 11 clinical isolate by broth dilution assay; format: functional
Staphylococcus aureus [6] = assay: Bactericidal activity against methicillin-resistant Staphylococcus aureus 07 clinical isolate by broth dilution assay; format: functional
Staphylococcus aureus [7] = assay: Bactericidal activity against methicillin-resistant Staphylococcus aureus 01 clinical isolate by broth dilution assay; format: functional
Staphylococcus aureus [8] = assay: Bactericidal activity against methicillin-resistant Staphylococcus aureus 10 clinical isolate by broth dilution assay; format: functional
Staphylococcus aureus [9] = assay: Bactericidal activity against methicillin-resistant Staphylococcus aureus 12 clinical isolate by broth dilution assay; format: functional
Staphylococcus aureus [10] = assay: Bactericidal activity against methicillin-resistant Staphylococcus aureus 08 clinical isolate by broth dilution assay; format: functional
Staphylococcus aureus [11] = assay: Antibacterial activity against methicillin-resistant Staphylococcus aureus 03 clinical isolate by broth dilution assay; format: functional
Staphylococcus aureus [12] = assay: Bactericidal activity against methicillin-resistant Staphylococcus aureus 13 clinical isolate by broth dilution assay; format: functional
Staphylococcus aureus [13] = assay: Bactericidal activity against methicillin-resistant Staphylococcus aureus 09 clinical isolate by broth dilution assay; format: functional
Staphylococcus aureus [14] = assay: Bactericidal activity against methicillin-resistant Staphylococcus aureus 03 clinical isolate by broth dilution assay; format: functional
Staphylococcus aureus [15] = assay: Antibacterial activity against methicillin-resistant Staphylococcus aureus 12 clinical isolate by broth dilution assay; format: functional
Staphylococcus aureus [16] = assay: Bactericidal activity against methicillin-resistant Staphylococcus aureus 05 clinical isolate by broth dilution assay; format: functional
Staphylococcus aureus [17] = assay: Bactericidal activity against methicillin-resistant Staphylococcus aureus 02 clinical isolate by broth dilution assay; format: functional
Staphylococcus aureus [18] = assay: Bactericidal activity against methicillin-resistant Staphylococcus aureus 11 clinical isolate by broth dilution assay; format: functional
Staphylococcus aureus [19] = assay: Bactericidal activity against methicillin-resistant Staphylococcus aureus 04 clinical isolate by broth dilution assay; format: functional
Staphylococcus aureus [20] = assay: Antibacterial activity against methicillin-resistant Staphylococcus aureus 08 clinical isolate by broth dilution assay; format: functional
Staphylococcus aureus [21] = assay: Antibacterial activity against methicillin-resistant Staphylococcus aureus 04 clinical isolate by broth dilution assay; format: functional
Staphylococcus aureus [22] = assay: Antibacterial activity against methicillin-resistant Staphylococcus aureus 13 clinical isolate by broth dilution assay; format: functional
Staphylococcus aureus [23] = assay: Antibacterial activity against methicillin-resistant Staphylococcus aureus 01 clinical isolate by broth dilution assay; format: functional
Staphylococcus aureus [24] = assay: Antibacterial activity against methicillin-resistant Staphylococcus aureus 05 clinical isolate by broth dilution assay; format: functional
Staphylococcus aureus [25] = assay: Antibacterial activity against methicillin-resistant Staphylococcus aureus 02 clinical isolate by broth dilution assay; format: functional
Staphylococcus aureus [26] = assay: Antibacterial activity against methicillin-resistant Staphylococcus aureus 10 clinical isolate by broth dilution assay; format: functional
Staphylococcus aureus [27] = assay: Antibacterial activity against methicillin-resistant Staphylococcus aureus 09 clinical isolate by broth dilution assay; format: functional
Staphylococcus aureus [28] = assay: Antibacterial activity against methicillin-resistant Staphylococcus aureus 06 clinical isolate by broth dilution assay; format: functional
Staphylococcus aureus [29] = assay: Antibacterial activity against methicillin-resistant Staphylococcus aureus 07 clinical isolate by broth dilution assay; format: functional

COc1ccc(-c2cc(=O)oc3c(C)c(OCC(=O)N[C@@H](Cc4c[nH]c5ccc(O)cc45)C(=O)O)ccc23)cc1
MIC (Staphylococcus aureus [1]): 4 µg/mL (≈ 7.37 µM) | Kd (MecA): 264 nM | IC50 (L02): 11.6 µM | Ka [2]: 5.65 10^5/M/s | MIC (Staphylococcus aureus [3]): 4 µg/mL (≈ 7.37 µM)

CN[C@H](CC(C)C)C(=O)N[C@H]1C(=O)N[C@@H](CC(N)=O)C(=O)N[C@H]2C(=O)N[C@H]3C(=O)N[C@H](C(=O)N[C@H](C(=O)O)c4cc(O)cc(O)c4-c4cc3ccc4O)[C@H](O)c3ccc(c(Cl)c3)Oc3cc2cc(c3O[C@@H]2O[C@H](CO)[C@@H](O)[C@H](O)[C@H]2O[C@H]2C[C@](C)(N)[C@H](O)[C@H](C)O2)Oc2ccc(cc2Cl)[C@H]1O [VANCOMYCIN]
MBC (Staphylococcus aureus [4]): 8 µg/mL (≈ 5.52 µM) | MIC (Staphylococcus aureus [5]): 16 µg/mL (≈ 11 µM) | MBC (Staphylococcus aureus [6]): 32 µg/mL (≈ 22.1 µM) | MBC (Staphylococcus aureus [7]): 32 µg/mL (≈ 22.1 µM) | MBC (Staphylococcus aureus [8]): 128 µg/mL (≈ 88.3 µM) | MBC (Staphylococcus aureus [9]): 128 µg/mL (≈ 88.3 µM) | MBC (Staphylococcus aureus [10]): 64 µg/mL (≈ 44.2 µM) | MIC (Staphylococcus aureus [11]): 8 µg/mL (≈ 5.52 µM) | MBC (Staphylococcus aureus [12]): 64 µg/mL (≈ 44.2 µM) | MBC (Staphylococcus aureus [13]): 32 µg/mL (≈ 22.1 µM) | MBC (Staphylococcus aureus [14]): 128 µg/mL (≈ 88.3 µM) | MIC (Staphylococcus aureus [15]): 8 µg/mL (≈ 5.52 µM) | MBC (Staphylococcus aureus [16]): 64 µg/mL (≈ 44.2 µM) | MBC (Staphylococcus aureus [17]): 64 µg/mL (≈ 44.2 µM) | IC50 (L02): > 20 µM | MBC (Staphylococcus aureus [18]): 64 µg/mL (≈ 44.2 µM) | MBC (Staphylococcus aureus [19]): 128 µg/mL (≈ 88.3 µM) | MIC (Staphylococcus aureus [20]): 8 µg/mL (≈ 5.52 µM)

CC(=O)Nc1ccc(NC(=O)COc2cc3c(c4oc(=O)c(C)c(C)c24)CCC(C)(C)O3)cc1
MIC (Staphylococcus aureus [1]): 64 µg/mL (≈ 138 µM) | IC50 (L02): > 20 µM | MIC (Staphylococcus aureus [3]): 32 µg/mL (≈ 68.9 µM)

COc1ccc(NC(=O)[C@H]2Oc3c(c(=O)oc4ccccc34)[C@@H]2c2ccc(CCCN3CCCC3=O)cc2)cc1
MIC (Staphylococcus aureus [1]): 64 µg/mL (≈ 119 µM) | Kd (MecA): 86600 nM | IC50 (L02): > 20 µM | Ka [2]: 2.46 10^4/M/s | MIC (Staphylococcus aureus [3]): 128 µg/mL (≈ 238 µM)

COc1cccc(/C=C2\Oc3cc(OCC(=O)N[C@@H](Cc4c[nH]c5ccccc45)C(=O)O)ccc3C2=O)c1
MIC (Staphylococcus aureus [1]): 8 µg/mL (≈ 15.6 µM) | IC50 (L02): > 20 µM | MIC (Staphylococcus aureus [3]): 4 µg/mL (≈ 7.8 µM)

CC[C@H](C)[C@@H](CC(=O)CNC(=O)CCc1c(C)c2cc3oc(C)c(-c4ccccc4)c3c(C)c2oc1=O)C(=O)O
MIC (Staphylococcus aureus [1]): 64 µg/mL (≈ 117 µM) | IC50 (L02): > 20 µM | MIC (Staphylococcus aureus [3]): 32 µg/mL (≈ 58.6 µM)

COc1ccc(CCNC(=O)COc2ccc3c(c2)OC2(CCN(C(C)=O)CC2)CC3=O)cc1OC
MIC (Staphylococcus aureus [1]): 64 µg/mL (≈ 129 µM) | IC50 (L02): 7.8 µM | MIC (Staphylococcus aureus [3]): 16 µg/mL (≈ 32.2 µM)

COc1cc2c(c(OC)c1OC)-c1ccc(NCC(=O)NCCc3c[nH]c4ccccc34)c(=O)cc1[C@@H](NC(C)=O)CC2
MIC (Staphylococcus aureus [1]): 4 µg/mL (≈ 6.84 µM) | Kd (MecA): 168 nM | IC50 (L02): > 20 µM | Ka [2]: 3.48 10^5/M/s | MIC (Staphylococcus aureus [3]): 2 µg/mL (≈ 3.42 µM)

O=C(C[C@@H]1NC(=O)c2ccccc2NC1=O)NCCc1c[nH]c2ccc(OCc3ccccc3)cc12
MIC (Staphylococcus aureus [1]): 32 µg/mL (≈ 66.3 µM) | IC50 (L02): > 20 µM | MIC (Staphylococcus aureus [3]): 64 µg/mL (≈ 133 µM)

C[C@]12CCC(=O)C=C1CC[C@@H]1[C@H]2CC[C@@]2(C)[C@H]1CC[C@]2(O)C(=O)COC(=O)CCC(=O)N[C@H]1CCCCNC1=O
MIC (Staphylococcus aureus [1]): 4 µg/mL (≈ 7.19 µM) | IC50 (L02): 16.9 µM | MIC (Staphylococcus aureus [3]): 4 µg/mL (≈ 7.19 µM)

Cc1ccc(NC(=O)[C@H](Cc2c[nH]c3ccccc23)NC(=O)C2CCN(C(=O)CNC(=O)OC(C)(C)C)CC2)cc1
MBC (Staphylococcus aureus [4]): 64 µg/mL (≈ 114 µM) | MIC (Staphylococcus aureus [21]): 4 µg/mL (≈ 7.12 µM) | MIC (Staphylococcus aureus [22]): 16 µg/mL (≈ 28.5 µM) | MIC (Staphylococcus aureus [5]): 2 µg/mL (≈ 3.56 µM) | MBC (Staphylococcus aureus [6]): 64 µg/mL (≈ 114 µM) | MBC (Staphylococcus aureus [7]): 32 µg/mL (≈ 57 µM) | MBC (Staphylococcus aureus [8]): 64 µg/mL (≈ 114 µM) | MBC (Staphylococcus aureus [9]): 256 µg/mL (≈ 456 µM) | MIC (Staphylococcus aureus [23]): 2 µg/mL (≈ 3.56 µM) | MIC (Staphylococcus aureus [24]): 1 µg/mL (≈ 1.78 µM) | MIC (Staphylococcus aureus [25]): 4 µg/mL (≈ 7.12 µM) | MIC (Staphylococcus aureus [26]): 4 µg/mL (≈ 7.12 µM) | MIC (Staphylococcus aureus [1]): 2 µg/mL (≈ 3.56 µM) | MBC (Staphylococcus aureus [10]): 32 µg/mL (≈ 57 µM) | MIC (Staphylococcus aureus [11]): 8 µg/mL (≈ 14.2 µM) | Kd (MecA): 129 nM | MBC (Staphylococcus aureus [12]): 128 µg/mL (≈ 228 µM) | MBC (Staphylococcus aureus [13]): 64 µg/mL (≈ 114 µM) | MIC (Staphylococcus aureus [27]): 16 µg/mL (≈ 28.5 µM) | MBC (Staphylococcus aureus [14]): 128 µg/mL (≈ 228 µM) | MIC (Staphylococcus aureus [28]): 4 µg/mL (≈ 7.12 µM) | MIC (Staphylococcus aureus [15]): 8 µg/mL (≈ 14.2 µM) | MBC (Staphylococcus aureus [16]): 8 µg/mL (≈ 14.2 µM) | MBC (Staphylococcus aureus [17]): 64 µg/mL (≈ 114 µM) | IC50 (L02): > 20 µM | MBC (Staphylococcus aureus [18]): 128 µg/mL (≈ 228 µM) | Ka [2]: 3.28 10^5/M/s | MBC (Staphylococcus aureus [19]): 64 µg/mL (≈ 114 µM) | MIC (Staphylococcus aureus [29]): 4 µg/mL (≈ 7.12 µM) | MIC (Staphylococcus aureus [3]): 2 µg/mL (≈ 3.56 µM) | MIC (Staphylococcus aureus [20]): 0.5 µg/mL (≈ 0.89 µM)

COc1ccc(CNC(=O)[C@@H](C)Oc2ccc3c(c2)c2cncc4c5cc(OC)c(OC)cc5c(=O)n3c42)c(OC)c1
MIC (Staphylococcus aureus [1]): 128 µg/mL (≈ 226 µM) | IC50 (L02): 6.4 µM | MIC (Staphylococcus aureus [3]): 64 µg/mL (≈ 113 µM)
